Values of other authors, collected in patent publication US20130137766A1, “Compound Used to Prevent Diseases Caused by Aquaporin Deficiency” (FU-JEN CATHOLIC UNIVERSITY, priority 2010, published 2013).

Tested on: AQP-3
Conditions: EGF-treated groups

Question: Which results are given for “EGF: epidermal growth factor, literature comparator (Cong Cao et al.) (NSDSECPLSHDGYCLHDGVCMYIEALDKYACNCVVGYIGERCQYRDLKWWELR; UniProt P01133 971-1023, looked up)”?
Answer: expression of AQP-3: significantly increased; wound healing: wound healing was facilitated
